Experimental data taken from paper PMC9866728, “Dosing Methods to Enable Cell-Based In Vitro Testing of Complex Substances: A Case Study with a PAH Mixture” (Toxics, 2022).
Several values for one entry are separate records, joined by “and”; a condition that tells them apart may be missing. Equal entries are not always repeated. Where two headings read alike, the source gives them in different places.

How the values were obtained:
[1] = Recovery over time from exposure to cell culture media without cells (GC-MS/MS); type: physicochemical
[2] = Table S1; ref PubChem; cited from earlier work
[3] = Loading kinetics of silicone micro-O-rings from methanol PAH solution (GC-MS/MS); type: physicochemical
[4] = O-ring loading rate constant, larger O-rings; ref Smith et al. 2010 [24]; cited from earlier work
[5] = Smith et al. O-Rings; ref Smith et al. 2010 [24]; cited from earlier work
[6] = MAF (400 ng/mL each PAH), one phase decay fit of nominal recovery
[7] = MAF (400 ng/mL each PAH), one phase decay fit of nominal recovery (text: ng/mL)
[8] = O-Rings (loaded in 10 µg/mL PAH solution), one phase association fit of nominal recovery
[9] = O-Rings, one phase association fit
[10] = O-Rings, one phase association fit (desorption into media)
[11] = Solvent Extract (DMSO, 15 ng/mL each PAH), one phase decay fit of nominal recovery
[12] = Solvent Extract (DMSO, 15 ng/mL each PAH), one phase decay fit of nominal recovery (text: ng/mL)
[13] = Solvent Extract, one phase decay fit
[14] = loading rate constant, one-phase association (h^-1), 10 µg/mL PAH mix in methanol
[15] = one-phase association fit of nominal Csilicone (µg/mL per Eq 1), 10 µg/mL PAH mix in methanol
[16] = one-phase association fit of nominal Csilicone, 10 µg/mL PAH mix in methanol, 0-24 h
[17] = one-phase association fit, micro-O-ring absorption

Structure (SMILES)	Y0 [1, 6]	Plateau [1, 7]	K ([1]; MAF, one phase decay fit)	Span ([1]; MAF, one phase decay fit)	Tau ([1]; MAF, one phase decay fit)	Plateau [1, 8]	Y0 [1, 8]	Half-time [1, 9]	Span [1, 9]	Tau [1, 9]	K [1, 10]	Y0 [1, 11]	Plateau [1, 12]	Half-time [1]	Half-time Value [3]	K Value [3]	Plateau Value [3]	Span Value [3]	Tau Value [3]	Y0 [3]	also measured
Cc1cccc2ccccc12 [1-Methylnaphthalene]	399.6	37.1	1.206	362.5	0.8293	1.035	-0.0496	1.691	1.085	2.439	0.41	14.94	2.307								K [1, 13]: 0.9085; Span [1, 13]: 12.63; Tau [1, 13]: 1.101; LogKow (PubChem) [2]: 3.87; best-fit rate constants (micro-O-ring loading) ([3]; loading from methanol solution): 26.7 h⁻¹; K Value [3, 14]: 26.6865; Plateau Value [3, 15]: 0.8912; Y0 [3, 16]: 0; Half-time Value [3, 17]: 0.02597; Span Value [3, 17]: 0.8912; Tau Value [3, 17]: 0.03747
Cc1ccc2ccccc2c1 [2-Methylnaphthalene]														0.5872	0.02597	26.6855	0.8914	0.8914	0.03747	0	K [1]: 1.206 and 1.18 and 0.9072; Tau [1]: 0.8294 and 0.8472 and 1.102; best-fit rate constants (micro-O-ring loading) [3]: 26.7 h⁻¹
c1cc2c3c(cccc3c1)CC2 [Acenaphthene]	398.6	44.72	0.9374	353.9	1.067	0.8203	-0.03588	2.678	0.8562	3.863	0.2589	14.88	2.58								K [1, 13]: 0.7259; Span [1, 13]: 12.3; Tau [1, 13]: 1.378; LogKow (PubChem) [2]: 3.92; Smith et al. 2010 K Value [4]: 1.8; K Value [3, 14]: 22.38; Plateau Value [3, 15]: 0.8224; Y0 [3, 16]: 0; Half-time Value [3, 17]: 0.03097; Span Value [3, 17]: 0.8224; Tau Value [3, 17]: 0.04468
C1=Cc2cccc3cccc1c23 [Acenaphthylene]	399.1	41.99	1.016	357.1	0.9842	0.6692	-0.08033	0.6114	0.7495	0.882	1.134	14.88	2.66								K [1, 13]: 0.7341; Span [1, 13]: 12.22; Tau [1, 13]: 1.362; K Value [3, 14]: 22.7382; Plateau Value [3, 15]: 0.6656; Y0 [3, 16]: 0; Half-time Value [3, 17]: 0.03048; Span Value [3, 17]: 0.6656; Tau Value [3, 17]: 0.04398
c1ccc2cc3c(ccc4ccccc43)cc2c1 [Benzo[a]anthracene]														2.255	4.451	0.1557	0.1684	0.1684	6.421	0	Smith et al. 2010 K Value [4]: 1.38
c1ccc2c(c1)-c1cccc3c1c-2cc1ccccc13 [Benzo[b]fluoranthene]														1.392	0.02358	29.3997	0.1089	0.1089	0.03401	0	
c1cc2ccc3ccc4ccc5cccc6c(c1)c2c3c4c56 [Benzo[g,h,i]perylene]														1.63	0.01297	53.4605	0.06193	0.06193	0.01871	0	
c1ccc2cc3c(cc2c1)-c1cccc2cccc-3c12 [Benzo[k]fluoranthene]	386	124.5	0.2609	261.5	3.833	0.7223	0.005418	1.391	0.7169	2.006	0.4984	15.74	4.199								K [1, 13]: 0.1008; Span [1, 13]: 11.54; Tau [1, 13]: 9.919; LogKow (PubChem) [2]: 6.11; K Value [3, 14]: 29.8778; Plateau Value [3, 15]: 0.1081; Y0 [3, 16]: 0; Half-time Value [3, 17]: 0.0232; Span Value [3, 17]: 0.1081; Tau Value [3, 17]: 0.03347
c1ccc(-c2ccccc2)cc1 [Biphenyl]														0.591	0.02096	33.0653	0.6997	0.6997	0.03024	0	K [1]: 1.298 and 1.173 and 1.091; Tau [1]: 0.7703 and 0.8527 and 0.917
c1ccc2c(c1)ccc1c3ccccc3ccc21 [Chrysene]														77098	4.881	0.142	0.1581	0.1581	7.042	0	Smith et al. 2010 K Value [4]: 1.37
c1ccc2c(c1)ccc1cc3c(ccc4ccccc43)cc12 [Dibenzo[a,h]anthracene]														1.539	3.094e-6		0.033	0.033	4.463e-6	0	Smith et al. 2010 K Value [4]: 1.1
c1ccc2c(c1)-c1ccc3ccc4cccc5cc-2c1c3c45 [Indeno[1,2,3-cd]pyrene]														2.714	0.01649	42.0316	0.0758	0.0758	0.02379	0	
c1ccc2ccccc2c1 [Naphthalene]	399.7	38.47	1.287	361.2	0.7773	1.084	-0.1564	0.378	1.24	0.5454	1.834	14.8	3.339								K [1, 13]: 0.6384; Span [1, 13]: 11.46; Tau [1, 13]: 1.566; Smith et al. 2010 K Value [4]: 2.38; K [5]: 3.55; K Value [3, 14]: 33.9576; Plateau Value [3, 15]: 0.7013; Y0 [3, 16]: 0; Half-time Value [3, 17]: 0.02041; Span Value [3, 17]: 0.7013; Tau Value [3, 17]: 0.02945
c1cc2cccc3c4cccc5cccc(c(c1)c23)c54 [Perylene]														1.656	0.02047	33.856	0.1047	0.1047	0.02954	0	
